# Measurements reported in patent US9540369B2, “Use of kinase inhibitors to increase the susceptibility of gram positive bacteria to beta lactam antibiotics” (Wisconsin Alumni Research Foundation, priority 2014, dated 2017).
# “Also recorded” adds a separate entry of the source.
# Tests used:
# PrkA [1] = assay: In vitro protein phosphorylation (autophosphorylation and MBP phosphorylation), PrkA; format: biochemical, L. monocytogenes; conditions: 1 μM, 10 μM or 100 μM inhibitor
# Experimental: (§1) In vitro protein phosphorylation. […] To investigate substrate-level phosphorylation, ˜10 μg of myelin basic protein (Novatein Biosciences, Woburn, Mass.) were added to the reaction mixture described above and incubated at room temperature, overnight. The reactions were terminated by adding 5X SDS loading buffer. Samples were fractionated by SDS-PAGE, fixed and dried, and analyzed by autoradiography.
# L. monocytogenes [2] = format: cell-based, Listeria monocytogenes; conditions: β-lactam dependent growth inhibition
# [3] = tested on: Methicillin-resistant S. aureus (strain USA300); assay: Broth growth curves of Methicillin-resistant S. aureus (USA300) with antibiotic in presence or absence of kinase inhibitor; format: cell-based, Staphylococcus aureus
# Lmo0618 = assay: In vitro protein phosphorylation (autophosphorylation and MBP phosphorylation), Lmo0618; format: biochemical, L. monocytogenes; conditions: 1 μM, 10 μM or 100 μM inhibitor
# Experimental: as §1
# L. monocytogenes [4] = assay: Broth growth curves of L. monocytogenes with antibiotic in presence or absence of kinase inhibitor; format: cell-based, Listeria monocytogenes; conditions: for inhibition of growth in a β-lactam synergistic dependent manner: ceftriaxone; for synergy with ceftriaxone against L. monocytogenes: AIA drugs at 10 μM
# M. smegmatis = M. smegmatis growth curves with or without meropenem; format: cell-based, Mycobacterium smegmatis; conditions: 10 μM inhibitor
# Experimental: Various AIA drugs were administered at 10 μM concentration to M. smegmatis, L. monocytogenes, and S. aureus.
# PrkA [5] = assay: Kinase-Glo assay, PrkA; format: biochemical, L. monocytogenes
# Stk1 = assay: Kinase-Glo assay, Stk1; format: biochemical, S. aureus; conditions: 0-40 μM inhibitor, 20 μM ATP, 10 μM MBP
# [6] = molecular target: PrkA (PASTA kinase of L. monocytogenes; kinase domain, GST fusion) (Listeria monocytogenes, UniProt A0A0H3GI69); assay: biochemical
# PknB = PknB (Mycobacterium tuberculosis, UniProt P9WI81)
# zebrafish (Danio rerio) = assay: Zebrafish toxicity assay; conditions: administered in their environment for five days
# Experimental: Human kinase inhibitors were administered to zebrafish in their environment for five days.
# MSRA = conditions: β-lactam dependent growth inhibition
# [7] = 0-40 μM inhibitor, 20 μM ATP, 10 μM MBP
structure (smiles),measurement,setting,value
Cc1ncc(-c2ccnc(Nc3ccc(S(C)(=O)=O)cc3)n2)n1C(C)C [AZD5438],inhibition of PrkA autophosphorylation and substrate level (MBP) phosphorylation,PrkA [1],specifically inhibits PrkA
same,effective dose against L. monocytogenes,L. monocytogenes [2],10 µM
same,synergy with β-lactam antibiotics against S. aureus,"[3]; AZD5438, data not shown",not S. aureus
same,inhibition of Lmo0618 phosphorylation activity,Lmo0618,not inhibiting
same,inhibition of growth in a β-lactam synergistic dependent manner,L. monocytogenes [4]; 50 μM AZD5438,capable of inhibiting L. monocytogenes growth
CCn1c(-c2nonc2N)nc2c(C#CC(C)(C)O)ncc(OC[C@@H]3CCCN3)c21 [GSK614526A],synergy with ceftriaxone against L. monocytogenes,L. monocytogenes [4],can inhibit growth in concert with ceftriaxone
same,synergistic activity with meropenem against M. smegmatis,M. smegmatis,None
"CCn1c(-c2nonc2N)nc2c(C#CC(C)(C)O)ncc(OC[C@H]3CCCNC3)c21 [GSK690693, 4-(2-(4-amino-1,2,5-oxadiazol-3-yl)-1-ethyl-7-{[(3S)-3-piperidinylmethyl]oxy}-1H-imidazo[4,5-c]pyridin-4-yl)-2-methyl-3-butyn-2-ol]",effective dose against L. monocytogenes,L. monocytogenes [2],10 µM
same,inhibition of PrkA enzymatic activity in vitro,PrkA [5]; [7],can inhibit
same,inhibition for PrkA compared to Stk1,PrkA [5]; biochemical,four-fold increase in inhibition
same,inhibition of Stk1 enzymatic activity in vitro,Stk1,can inhibit
same,IC50,[6],1200 nM
same,inhibition of PknB enzymatic activity in vitro,PknB; [7],can inhibit
same,inhibition for PknB compared to Stk1,PknB; biochemical,four-fold increase in inhibition
same,synergy with ceftriaxone against L. monocytogenes,L. monocytogenes [4],can inhibit growth in concert with ceftriaxone
same,inhibition of growth in a β-lactam synergistic dependent manner,L. monocytogenes [4]; 100 μM GSK690693,inhibited L. monocytogenes growth in a β-lactam synergistic dependent manner
same,synergistic activity with meropenem against M. smegmatis,M. smegmatis,exhibits synergy; also recorded: can work to inhibit growth synergistically with meropenem
same,toxicity in zebrafish,zebrafish (Danio rerio),does not induce toxicity
CCn1c(-c2nonc2N)nc2c(C#CC(C)(C)O)nc(OC[C@@H](N)c3ccccc3)cc21 [GSK938890A],effective dose against L. monocytogenes,L. monocytogenes [2],10 µM
same,synergy with ceftriaxone against L. monocytogenes,L. monocytogenes [4],can inhibit growth in concert with ceftriaxone
same,synergistic activity with meropenem against M. smegmatis,M. smegmatis,None
CCn1c(-c2nonc2N)nc2c(C#CC(C)(C)O)nc(OC[C@H](N)c3ccccc3)cc21 [GSK943949A],synergy with ceftriaxone against L. monocytogenes,L. monocytogenes [4],can inhibit growth in concert with ceftriaxone
same,synergistic activity with meropenem against M. smegmatis,M. smegmatis,None
CCn1c(-c2nonc2N)nc2c(C#CC(C)(C)O)nc(OCCNC)cc21 [GSK949675A],effective dose against L. monocytogenes,L. monocytogenes [2],10 µM
same,synergy with ceftriaxone against L. monocytogenes,L. monocytogenes [4],can inhibit growth in concert with ceftriaxone
same,synergistic activity with meropenem against M. smegmatis,M. smegmatis,None
same,effective dose against MSRA,MSRA,10 µM
CCn1c(-c2nonc2N)nc2c(C#CC(C)(C)O)nc(O[C@@H](CN)c3ccccc3)cc21.O=C(O)C(F)(F)F [GSK1007102B],synergy with ceftriaxone against L. monocytogenes,L. monocytogenes [4],can inhibit growth in concert with ceftriaxone
same,synergistic activity with meropenem against M. smegmatis,M. smegmatis,showing such a synergistic effect
same,effect on M. smegmatis growth in the absence of a β-lactam,M. smegmatis; no additional drugs,minor affect on growth; also recorded: shows inhibition in the absence of a β-lactam
CCn1c(-c2nonc2N)nc2c(C#CC(C)(C)O)nc(CN3CCCC3)cc21 [GW1000163A],synergy with ceftriaxone against L. monocytogenes,L. monocytogenes [4],did not exhibit such synergistic activity
same,synergistic activity with meropenem against M. smegmatis,M. smegmatis,None
O=c1c2ccccc2[nH]c(=S)n1CCN1CCC(=C(c2ccc(F)cc2)c2ccc(F)cc2)CC1 [diacylglycerol kinase inhibitor II],toxicity in zebrafish,zebrafish (Danio rerio),highly toxic
CN[C@@H]1C[C@H]2O[C@@](C)([C@@H]1OC)n1c3ccccc3c3c4c(c5c6ccccc6n2c5c31)C(=O)NC4 [staurosporine],S. aureus susceptibility to ceftriaxone or other β-lactam or non-β-lactam antibiotics,[3]; 10 μM staurosporine,unaffected
same,susceptibility to vancomycin or kanamycin,L. monocytogenes [4]; 10 μM staurosporine,unaffected
same,increase in susceptibility to ceftriaxone upon overexpression of prkA,"L. monocytogenes [4]; prkA^theo strain, 2 mM theophylline, 10 μM staurosporine",10 fold
same,bacterial morphology by immunofluorescence microscopy,L. monocytogenes [4]; staurosporine combined with β-lactam antibiotics,grossly disrupted bacterial morphology
same,sensitization to lysozyme,"L. monocytogenes [4]; staurosporine, data not shown",increased the sensitization
same,increase in susceptibility to ceftriaxone,"L. monocytogenes [4]; wild type, 10 μM staurosporine",100 fold
